# Measured values published in PubChem BioAssay AID2060895 (Molecular Pharmacology Branch, DTP, NCI, 2025).
# Tested on: PDC 899932-113-R3-J6 complex spheroid viability
# Test: Anticancer human tumor 899932-113-R3-J6-PDC patient-derived melanoma cell line growth inhibition [RAS]
# Settings: for IC50: curve of first compound; for viability, T/C: stronger effect = lower value
# Summary of the method: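 Agents were tested in combination matrices in half-log decrements from a top concentration at or near clinical Cmax (10 microM if undetermined). Targets were multi-cell spheroids of tumour lines plus HUVEC and MSC stromal cells.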
# [1] = second compound 0.00316 µM, first compound 0.0316 µM
# [2] = second compound 0.00316 µM, first compound 0.1 µM
# [3] = second compound 0.01 µM, first compound 0.0316 µM
# [4] = second compound 0.01 µM, first compound 0.1 µM
# [5] = second compound 0.0316 µM, first compound 0.0316 µM
# [6] = second compound 0.0316 µM, first compound 0.1 µM
# [7] = second compound 0.1 µM, first compound 0.0316 µM
# [8] = second compound 0.1 µM, first compound 0.1 µM
# [9] = second compound 0.316 µM, first compound 0.0316 µM
# [10] = second compound 0.316 µM, first compound 0.1 µM
# [11] = second compound 1 µM, first compound 0.0316 µM
# [12] = second compound 1 µM, first compound 0.1 µM
# 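Throughout, for viability, T/C: spheroids exposed to agents for seven days before readout; 100% = DMSO vehicle control wells.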
compound,measurement,setting,value
CC(C)NCC(C(=O)N1CCN(c2ncnc3c2C(C)CC3O)CC1)c1ccc(Cl)cc1 (centres undefined) + C=CC(=O)N1CCN(c2nc(OCC3CCCN3C)nc3c(F)c(-c4nc(N)cc(C)c4C(F)(F)F)c(Cl)cc23)C(C)C1,IC50,second compound 0.00316 µM,4.89 µM
same,IC50,second compound 0.01 µM,5.2 µM
same,IC50,second compound 0.0316 µM,5.3 µM
same,IC50,second compound 0.1 µM,5.83 µM
same,IC50,second compound 0.316 µM,5.98 µM
same,IC50,second compound 1 µM,6.01 µM
same,"viability, T/C",[1],106%
same,"viability, T/C",[2],97.3%
same,"viability, T/C","second compound 0.00316 µM, first compound 0.316 µM",99.6%
same,"viability, T/C","second compound 0.00316 µM, first compound 1 µM",84.4%
same,"viability, T/C","second compound 0.00316 µM, first compound 3.16 µM",60.3%
same,"viability, T/C","second compound 0.00316 µM, first compound 10 µM",33%
same,"viability, T/C",[3],110%
same,"viability, T/C",[4],105%
same,"viability, T/C","second compound 0.01 µM, first compound 0.316 µM",102%
same,"viability, T/C","second compound 0.01 µM, first compound 1 µM",81.3%
same,"viability, T/C","second compound 0.01 µM, first compound 3.16 µM",60.9%
same,"viability, T/C","second compound 0.01 µM, first compound 10 µM",36.8%
same,"viability, T/C",[5],110%
same,"viability, T/C",[6],101%
same,"viability, T/C","second compound 0.0316 µM, first compound 0.316 µM",104%
same,"viability, T/C","second compound 0.0316 µM, first compound 1 µM",82.7%
same,"viability, T/C","second compound 0.0316 µM, first compound 3.16 µM",65.1%
same,"viability, T/C","second compound 0.0316 µM, first compound 10 µM",32.6%
same,"viability, T/C",[7],103%
same,"viability, T/C",[8],110%
same,"viability, T/C","second compound 0.1 µM, first compound 0.316 µM",99%
same,"viability, T/C","second compound 0.1 µM, first compound 1 µM",89%
same,"viability, T/C","second compound 0.1 µM, first compound 3.16 µM",58.9%
same,"viability, T/C","second compound 0.1 µM, first compound 10 µM",41.9%
same,"viability, T/C",[9],106%
same,"viability, T/C",[10],105%
same,"viability, T/C","second compound 0.316 µM, first compound 0.316 µM",96.3%
same,"viability, T/C","second compound 0.316 µM, first compound 1 µM",83.7%
same,"viability, T/C","second compound 0.316 µM, first compound 3.16 µM",72.8%
same,"viability, T/C","second compound 0.316 µM, first compound 10 µM",33.6%
same,"viability, T/C",[11],88.7%
same,"viability, T/C",[12],104%
same,"viability, T/C","second compound 1 µM, first compound 0.316 µM",105%
same,"viability, T/C","second compound 1 µM, first compound 1 µM",89.5%
same,"viability, T/C","second compound 1 µM, first compound 3.16 µM",73.7%
same,"viability, T/C","second compound 1 µM, first compound 10 µM",31.7%
CC(C)n1nc(-c2ccc3oc(N)nc3c2)c2c(N)ncnc21 + C=CC(=O)N1CCN(c2nc(OCC3CCCN3C)nc3c(F)c(-c4nc(N)cc(C)c4C(F)(F)F)c(Cl)cc23)C(C)C1,IC50,second compound 0.00316 µM,0.0907 µM
same,IC50,second compound 0.01 µM,> 0.1 µM
same,IC50,second compound 0.0316 µM,> 0.1 µM
same,IC50,second compound 0.1 µM,> 0.1 µM
same,IC50,second compound 0.316 µM,> 0.1 µM
same,IC50,second compound 1 µM,> 0.1 µM
same,"viability, T/C","second compound 0.00316 µM, first compound 0.000316 µM",109%
same,"viability, T/C","second compound 0.00316 µM, first compound 0.001 µM",105%
same,"viability, T/C","second compound 0.00316 µM, first compound 0.00316 µM",114%
same,"viability, T/C","second compound 0.00316 µM, first compound 0.01 µM",105%
same,"viability, T/C",[1],79.6%
same,"viability, T/C",[2],47.3%
same,"viability, T/C","second compound 0.01 µM, first compound 0.000316 µM",113%
same,"viability, T/C","second compound 0.01 µM, first compound 0.001 µM",116%
same,"viability, T/C","second compound 0.01 µM, first compound 0.00316 µM",112%
same,"viability, T/C","second compound 0.01 µM, first compound 0.01 µM",115%
same,"viability, T/C",[3],74.5%
same,"viability, T/C",[4],52.6%
same,"viability, T/C","second compound 0.0316 µM, first compound 0.000316 µM",113%
same,"viability, T/C","second compound 0.0316 µM, first compound 0.001 µM",111%
same,"viability, T/C","second compound 0.0316 µM, first compound 0.00316 µM",102%
same,"viability, T/C","second compound 0.0316 µM, first compound 0.01 µM",97.7%
same,"viability, T/C",[5],75.7%
same,"viability, T/C",[6],54.1%
same,"viability, T/C","second compound 0.1 µM, first compound 0.000316 µM",110%
same,"viability, T/C","second compound 0.1 µM, first compound 0.001 µM",121%
same,"viability, T/C","second compound 0.1 µM, first compound 0.00316 µM",106%
same,"viability, T/C","second compound 0.1 µM, first compound 0.01 µM",92.2%
same,"viability, T/C",[7],83.5%
same,"viability, T/C",[8],52.3%
same,"viability, T/C","second compound 0.316 µM, first compound 0.000316 µM",98.9%
same,"viability, T/C","second compound 0.316 µM, first compound 0.001 µM",104%
same,"viability, T/C","second compound 0.316 µM, first compound 0.00316 µM",111%
same,"viability, T/C","second compound 0.316 µM, first compound 0.01 µM",104%
same,"viability, T/C",[9],85.5%
same,"viability, T/C",[10],50%
same,"viability, T/C","second compound 1 µM, first compound 0.000316 µM",108%
same,"viability, T/C","second compound 1 µM, first compound 0.001 µM",108%
same,"viability, T/C","second compound 1 µM, first compound 0.00316 µM",109%
same,"viability, T/C","second compound 1 µM, first compound 0.01 µM",100%
same,"viability, T/C",[11],78.9%
same,"viability, T/C",[12],54.8%
